Paper PMC5624297, “Trichoplax adhaerens reveals a network of nuclear receptors sensitive to 9-cis-retinoic acid at the base of metazoan evolution” (PeerJ, 2017)

Target: T1, TaRXR (T. adhaerens RXR; GST-TaRXR) (Trichoplax adhaerens, UniProt A0A290WNL1)
T1 construct: full-length RXR cDNA in pGEX-2T, E. coli BL21 pLysS; N-terminal GST fusion on glutathione beads or thrombin-cleaved; starts MEDRSFK (from printed primer)
T1 sequence (A0A290WNL1 1-345): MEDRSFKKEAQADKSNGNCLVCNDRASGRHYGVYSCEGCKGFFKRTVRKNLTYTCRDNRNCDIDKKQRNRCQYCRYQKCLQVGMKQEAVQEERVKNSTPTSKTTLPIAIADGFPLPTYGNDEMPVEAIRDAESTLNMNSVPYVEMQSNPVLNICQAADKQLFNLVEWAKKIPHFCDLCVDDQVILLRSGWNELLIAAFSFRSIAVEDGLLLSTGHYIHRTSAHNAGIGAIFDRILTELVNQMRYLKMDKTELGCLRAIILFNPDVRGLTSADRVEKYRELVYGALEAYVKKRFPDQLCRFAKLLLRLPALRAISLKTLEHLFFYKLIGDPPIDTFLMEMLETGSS
Assay: radioligand saturation binding (GST-TaRXR on beads) and competition (thrombin-cleaved TaRXR)
Details: labelled compound (3H); 50 mM Tris-HCl pH 7.4, 1 mM EDTA, 120 mM KCl, 5 mM DTT, 8% glycerol, 0.3-0.5% CHAPS; 2 h on ice in dark

For `CC1=C(/C=C/C(C)=C\C=C\C(C)=C\C(=O)O)C(C)(C)CCC1` [9-cis-retinoic acid], the “radioligand saturation binding (GST-TaRXR on beads) and competition (thrombin-cl)” value was “TaRXR prepared as thrombin cleaved TaRXR or GST-TaRXR binds 9-cis-RA with high affinity and specificity”.
